Experimental data published in US20210053957A1, “HERBICIDAL COMPOUNDS” (SYNGENTA PARTICIPATIONS AG, priority 2018, published 2021).

How the values were obtained:
Test in all cases: Post-emergence efficacy, glasshouse spray test
Format in all cases: in vivo
Lolium perenne (LOLPE) = conditions: Application Rate 500 g/Ha, evaluated after 13 days; for pest or weed control at 500 g/ha: Lolium perenne, post-emergence, 312 h, read-out: Control of weed species after post-emergence application, LOLPE (100=total damage to plant; 0=no damage to plant)
Summary of the method: (§1)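 Herbicidal effect is given as percent damage on a 0–100 scale, assessed 13 days after spraying plants that had been cultivated 14 days post-sowing. Diluent contained 0.25% or 1% Empicol ESC70 with 1% ammonium sulphate.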

[1] = tested on: Digitaria sanguinalis (DIGSA); conditions: Application Rate 500 g/Ha, evaluated after 13 days; for pest or weed control at 500 g/ha: Digitaria sanguinalis, post-emergence, 312 h, read-out: Control of weed species after post-emergence application, DIGSA (100=total damage to plant; 0=no damage to plant)
Summary of the method: as §1

[2] = tested on: Amaranthus palmeri (AMAPA); conditions: Application Rate 500 g/Ha, evaluated after 13 days; for pest or weed control at 500 g/ha: Amaranthus palmeri, post-emergence, 312 h, read-out: Control of weed species after post-emergence application, AMAPA (100=total damage to plant; 0=no damage to plant)
Summary of the method: as §1

[3] = tested on: Echinochloa crus-galli (ECHCG); conditions: Application Rate 500 g/Ha, evaluated after 13 days; for pest or weed control at 500 g/ha: Echinochloa crus-galli, post-emergence, 312 h, read-out: Control of weed species after post-emergence application, ECHCG (100=total damage to plant; 0=no damage to plant)
Summary of the method: as §1

[4] = tested on: Euphorbia heterophylla (EPHHL); conditions: Application Rate 500 g/Ha, evaluated after 13 days; for pest or weed control at 500 g/ha: Euphorbia heterophylla, post-emergence, 312 h, read-out: Control of weed species after post-emergence application, EPHHL (100=total damage to plant; 0=no damage to plant)
Summary of the method: as §1

[5] = tested on: Chenopodium album (CHEAL); conditions: Application Rate 500 g/Ha, evaluated after 13 days; for pest or weed control at 500 g/ha: Chenopodium album, post-emergence, 312 h, read-out: Control of weed species after post-emergence application, CHEAL (100=total damage to plant; 0=no damage to plant)
Summary of the method: as §1

Setaia fabei (SETFA) = conditions: Application Rate 500 g/Ha, evaluated after 13 days; for pest or weed control at 500 g/ha: Setaria faberi, post-emergence, 312 h, read-out: Control of weed species after post-emergence application, SETFA (100=total damage to plant; 0=no damage to plant)
Summary of the method: as §1

Eleusine indica (ELEIN) = conditions: Application Rate 500 g/Ha, evaluated after 13 days; for pest or weed control at 500 g/ha: Eleusine indica, post-emergence, 312 h, read-out: Control of weed species after post-emergence application, ELEIN (100=total damage to plant; 0=no damage to plant)
Summary of the method: as §1

[6] = tested on: Ipomoea hederacea (IPOHE); conditions: Application Rate 500 g/Ha, evaluated after 13 days; for pest or weed control at 500 g/ha: Ipomoea hederacea, post-emergence, 312 h, read-out: Control of weed species after post-emergence application, IPOHE (100=total damage to plant; 0=no damage to plant)
Summary of the method: as §1

Row | Compound | pest or weed control at 500 g/ha (Lolium perenne (LOLPE)) | pest or weed control at 500 g/ha [1] | pest or weed control at 500 g/ha [2] | pest or weed control at 500 g/ha [3] | pest or weed control at 500 g/ha [4] | pest or weed control at 500 g/ha [5] | pest or weed control at 500 g/ha (Setaia fabei (SETFA)) | pest or weed control at 500 g/ha (Eleusine indica (ELEIN)) | pest or weed control at 500 g/ha [6] | Control of weed species after post-emergence application, LOLPE (100=total damage to plant; 0=no damage to plant) (Lolium perenne (LOLPE)) | Control of weed species after post-emergence application, DIGSA (100=total damage to plant; 0=no damage to plant) [1] | Control of weed species after post-emergence application, AMAPA (100=total damage to plant; 0=no damage to plant) [2] | Control of weed species after post-emergence application, ECHCG (100=total damage to plant; 0=no damage to plant) [3] | Control of weed species after post-emergence application, EPHHL (100=total damage to plant; 0=no damage to plant) [4] | Control of weed species after post-emergence application, CHEAL (100=total damage to plant; 0=no damage to plant) [5] | Control of weed species after post-emergence application, SETFA (100=total damage to plant; 0=no damage to plant) (Setaia fabei (SETFA)) | Control of weed species after post-emergence application, ELEIN (100=total damage to plant; 0=no damage to plant) (Eleusine indica (ELEIN)) | Control of weed species after post-emergence application, IPOHE (100=total damage to plant; 0=no damage to plant) [6]
1 | O=S(=O)([O-])CCC[n+]1ccc(-c2ccon2)cn1 [Compound A59] | 70% | 70% | 90% | 70% | 100% | 90% | 80% | 90% | 80% |  |  |  |  |  |  |  |  | 
2 | Cc1coc(-c2cc[n+](CC(=O)O)nc2)n1 [Compound A132] | 50% | 90% | 90% | 90% | 70% | 70% | 80% | 90% | 10% |  |  |  |  |  |  |  |  | 
3 | O=C(O)CC[n+]1ccc(-c2ccno2)cn1 [Compound A96] | 70% | 40% | 100% | 30% | 100% | 90% | 80% | 80% | 80% |  |  |  |  |  |  |  |  | 
4 | CCOC(=O)c1coc(-c2cc[n+](CCS(=O)(=O)O)nc2)n1 [Compound A124] |  |  |  |  |  |  |  |  |  | 40 | 90 | 90 | 40 | 90 | 30 | 70 | 80 | 40
5 | O=S(=O)([O-])N1CCCC1C[n+]1ccc(-c2ncco2)cn1 (stereo not drawn) [Compound A101] | 20% | 70% | 70% | 40% | 70% | 60% | 60% | 30% | 40% |  |  |  |  |  |  |  |  | 
6 | O=C(O)CC[n+]1ccc(-c2cncs2)cn1 [Compound A122] | 20% | 90% | 90% | 30% | 70% | 0% | 50% | 70% | 30% |  |  |  |  |  |  |  |  | 
7 | Nc1nsc(-c2cc[n+](CCS(=O)(=O)[O-])nc2)n1 [Compound A141] | 30% | 10% | 100% | 30% | 100% | 100% | 50% | 10% | 100% |  |  |  |  |  |  |  |  | 
8 | O=S(=O)([O-])CC[n+]1ccc(-c2cscn2)cn1 [Compound A61] | 30% | 80% | 100% | 50% | 40% | 70% | 70% | 60% | 20% |  |  |  |  |  |  |  |  | 
